The values that follow come from US7081538B1, “Substituted isoxazolines and their use as antibacterial agents” (priority 1999, dated 2006).

For orientation: MIC means the lowest concentration found to suppress growth. Lower therefore signals inhibition by little substance.

The structures appear in SMILES notation. Converted amounts (≈) assume the structure as drawn.

What all share (format): cell-based
Assay [1] has as its system Staphylococcus aureus Oxford. The assay is described as follows: MIC by agar-dilution, Staphylococcus aureus Oxford. The settings on record: inoculum 10^4 CFU/spot, 37° C., 24 hours. Here is the method:
(§1) The following results were obtained on a standard in-vitro test system. The activity is described in terms of the minimum inhibitory concentration (MIC) determined by the agar-dilution technique with an inoculum size of 10^4 CFU/spot. Typically, compounds are active in the range 0.01 to 256 μg/ml.
(§2) Staphylococci were tested on agar, using an inoculum of 10^4 CFU/spot and an incubation temperature of 37° C. for 24 hours—standard test conditions for the expression of methicillin resistance.

In assay [2] the test system is Coagulase Negative Staphylococci MS (methicillin sensitive). The assay is described as follows: MIC by agar-dilution, Coagulase Negative Staphylococci MS. Particulars: inoculum 10^4 CFU/spot, 37° C., 24 hours. Here is the method: as §1, §2
Assay [3] relates to Staphylococcus aureus Novb. Res (Novobiocin resistant). The assay is described as follows: MIC by agar-dilution, Staphylococcus aureus Novb. Res. Particulars: inoculum 10^4 CFU/spot, 37° C., 24 hours. As for the experimental part: as §1, §2
Assay [4] has as its system Coagulase Negative Staphylococci MR (methicillin resistant). The assay is described as follows: MIC by agar-dilution, Coagulase Negative Staphylococci MR. The settings on record: inoculum 10^4 CFU/spot, 37° C., 24 hours. Here is the method: as §1, §2
Assay [5] relates to Staphylococcus aureus MRQR (methicillin resistant quinolone resistant). The assay is described as follows: MIC by agar-dilution, Staphylococcus aureus MRQR. The settings on record: inoculum 10^4 CFU/spot, 37° C., 24 hours. Here is the method:
as §1, §2

Another assay has as its system Bacillus subtilis. As to the kind of experiment: MIC by agar-dilution, Bacillus subtilis. Particulars: inoculum 10^4 CFU/spot. As for the experimental part: as §1
The subject of assay [6] is Streptococcus pyogenes C203. As to the kind of experiment: MIC by agar-dilution, Streptococcus pyogenes C203. The settings on record: agar with 5% defibrinated horse blood, 10^4 CFU/spot, 37° C., 5% carbon dioxide, 48 hours. As for the experimental part:
as §1
(§3) Streptococci and enterococci were tested on agar supplemented with 5% defibrinated horse blood, an inoculum of 10^4 CFU/spot and an incubation temperature of 37° C. in an atmosphere of 5% carbon dioxide for 48 hours—blood is required for the growth of some of the test organisms.

For another assay, the system named is Enterococcus faecalis. As to the kind of experiment: MIC by agar-dilution, Enterococcus faecalis. The settings on record: agar with 5% defibrinated horse blood, 10^4 CFU/spot, 37° C., 5% carbon dioxide, 48 hours. As for the experimental part:
as §1, §3

Turning to `O=C(CO)N1CC=C(c2ccc(C3=NOC(CNc4ccon4)C3)cc2)CC1` (racemic) [Example 1, (5RS)-3-(4-(1-Hydroxyacetyl-1,2,5,6-tetrahydropyrid-4-yl)phenyl)-5-(3-isoxazolylaminomethyl)-4,5-dihydro-isoxazole], the minimum inhibitory concentration (MIC) is 2 µg/mL (≈ 5.23 µM) in assay [1]; 1 µg/mL (≈ 2.61 µM) in assay [2]; 4 µg/mL (≈ 10.5 µM) in assay [3]; 2 µg/mL (≈ 5.23 µM) in assay [4]; 4 µg/mL (≈ 10.5 µM) in assay [5]; 1 µg/mL (≈ 2.61 µM) with Bacillus subtilis. Moreover, the “MIC” value (in assay [6]; against Enterococcus faecalis) was 8 µg/mL (≈ 20.9 µM) in each case.
